Legend:
SMARCA2 = molecular target: T1, SMARCA2 (Homo sapiens, UniProt P51531); assay: SMARCA2 HiBiT degradation assay in HeLa cells; assay type: cell-based; conditions: 18 hours; for DC50: read-out: SMARCA2 IC50; for Dmax: HeLa
T1 construct: SMARCA2-HiBiT knock-in Hela monoclonal cell (CS302366); host or cells: HeLa (CRISPR HiBiT knock-in monoclonal line, heterozygous)
Summary of the method: (§1)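 Degradation measured as HiBiT luminescence (Nano-Glo lytic reagent) after 18 h compound exposure at 37° C. Cells were HeLa clones carrying heterozygous HiBiT tags on SMARCA2 or SMARCA4, 2500 per well; compounds at 3-fold serial dilution from 10 μM.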

SMARCA4 = molecular target: T2, SMARCA4 (Homo sapiens, UniProt P51532); assay: SMARCA4 HiBiT degradation assay in HeLa cells; assay type: cell-based; conditions: 18 hours; for Dmax: HeLa
T2 construct: SMARCA4-HiBiT knock-in Hela monoclonal cell (CS3023226) were purchased from Promega; host or cells: HeLa (CRISPR HiBiT knock-in monoclonal line, heterozygous)
Summary of the method: as §1

T1 sequence (P51531 whole entry): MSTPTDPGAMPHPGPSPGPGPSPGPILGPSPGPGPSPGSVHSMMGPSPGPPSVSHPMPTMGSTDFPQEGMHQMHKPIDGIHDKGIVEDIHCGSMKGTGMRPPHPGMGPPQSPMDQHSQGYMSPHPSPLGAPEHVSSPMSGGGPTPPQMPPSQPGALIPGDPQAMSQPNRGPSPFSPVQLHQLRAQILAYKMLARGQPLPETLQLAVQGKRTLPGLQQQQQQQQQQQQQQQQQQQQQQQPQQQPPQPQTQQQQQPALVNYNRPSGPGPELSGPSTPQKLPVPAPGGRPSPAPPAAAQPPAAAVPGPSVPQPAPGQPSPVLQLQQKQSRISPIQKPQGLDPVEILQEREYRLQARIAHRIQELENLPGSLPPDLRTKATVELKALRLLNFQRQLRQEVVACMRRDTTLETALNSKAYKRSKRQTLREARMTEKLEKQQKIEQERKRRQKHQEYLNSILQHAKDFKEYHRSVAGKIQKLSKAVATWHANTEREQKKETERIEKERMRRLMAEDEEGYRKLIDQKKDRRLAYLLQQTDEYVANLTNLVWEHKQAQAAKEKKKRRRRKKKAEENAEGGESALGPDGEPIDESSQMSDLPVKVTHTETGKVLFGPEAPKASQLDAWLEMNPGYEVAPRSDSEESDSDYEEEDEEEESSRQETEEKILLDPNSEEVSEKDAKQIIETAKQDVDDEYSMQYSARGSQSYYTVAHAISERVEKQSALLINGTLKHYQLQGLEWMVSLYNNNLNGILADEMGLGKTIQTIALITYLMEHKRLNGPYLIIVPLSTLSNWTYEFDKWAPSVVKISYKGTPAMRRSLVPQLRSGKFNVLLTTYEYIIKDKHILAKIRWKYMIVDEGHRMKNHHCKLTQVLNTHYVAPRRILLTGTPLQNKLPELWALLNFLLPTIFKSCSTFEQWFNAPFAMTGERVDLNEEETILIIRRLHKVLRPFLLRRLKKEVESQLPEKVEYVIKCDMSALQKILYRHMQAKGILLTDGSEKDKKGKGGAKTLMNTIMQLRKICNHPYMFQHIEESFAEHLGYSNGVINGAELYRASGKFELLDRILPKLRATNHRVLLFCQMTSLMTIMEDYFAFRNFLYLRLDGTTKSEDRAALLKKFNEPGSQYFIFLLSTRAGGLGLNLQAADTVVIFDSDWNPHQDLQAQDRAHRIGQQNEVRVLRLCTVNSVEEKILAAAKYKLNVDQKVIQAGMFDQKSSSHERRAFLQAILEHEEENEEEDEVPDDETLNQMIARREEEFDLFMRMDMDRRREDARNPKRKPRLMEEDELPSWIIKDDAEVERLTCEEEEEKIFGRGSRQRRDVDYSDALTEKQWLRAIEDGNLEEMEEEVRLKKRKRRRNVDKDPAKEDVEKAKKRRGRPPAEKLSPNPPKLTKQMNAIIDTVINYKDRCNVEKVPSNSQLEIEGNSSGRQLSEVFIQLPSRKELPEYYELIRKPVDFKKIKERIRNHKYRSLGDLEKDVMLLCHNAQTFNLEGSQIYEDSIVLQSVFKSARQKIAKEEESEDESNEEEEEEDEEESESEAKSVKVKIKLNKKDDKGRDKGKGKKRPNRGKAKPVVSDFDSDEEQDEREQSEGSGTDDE
T2 sequence (P51532 whole entry): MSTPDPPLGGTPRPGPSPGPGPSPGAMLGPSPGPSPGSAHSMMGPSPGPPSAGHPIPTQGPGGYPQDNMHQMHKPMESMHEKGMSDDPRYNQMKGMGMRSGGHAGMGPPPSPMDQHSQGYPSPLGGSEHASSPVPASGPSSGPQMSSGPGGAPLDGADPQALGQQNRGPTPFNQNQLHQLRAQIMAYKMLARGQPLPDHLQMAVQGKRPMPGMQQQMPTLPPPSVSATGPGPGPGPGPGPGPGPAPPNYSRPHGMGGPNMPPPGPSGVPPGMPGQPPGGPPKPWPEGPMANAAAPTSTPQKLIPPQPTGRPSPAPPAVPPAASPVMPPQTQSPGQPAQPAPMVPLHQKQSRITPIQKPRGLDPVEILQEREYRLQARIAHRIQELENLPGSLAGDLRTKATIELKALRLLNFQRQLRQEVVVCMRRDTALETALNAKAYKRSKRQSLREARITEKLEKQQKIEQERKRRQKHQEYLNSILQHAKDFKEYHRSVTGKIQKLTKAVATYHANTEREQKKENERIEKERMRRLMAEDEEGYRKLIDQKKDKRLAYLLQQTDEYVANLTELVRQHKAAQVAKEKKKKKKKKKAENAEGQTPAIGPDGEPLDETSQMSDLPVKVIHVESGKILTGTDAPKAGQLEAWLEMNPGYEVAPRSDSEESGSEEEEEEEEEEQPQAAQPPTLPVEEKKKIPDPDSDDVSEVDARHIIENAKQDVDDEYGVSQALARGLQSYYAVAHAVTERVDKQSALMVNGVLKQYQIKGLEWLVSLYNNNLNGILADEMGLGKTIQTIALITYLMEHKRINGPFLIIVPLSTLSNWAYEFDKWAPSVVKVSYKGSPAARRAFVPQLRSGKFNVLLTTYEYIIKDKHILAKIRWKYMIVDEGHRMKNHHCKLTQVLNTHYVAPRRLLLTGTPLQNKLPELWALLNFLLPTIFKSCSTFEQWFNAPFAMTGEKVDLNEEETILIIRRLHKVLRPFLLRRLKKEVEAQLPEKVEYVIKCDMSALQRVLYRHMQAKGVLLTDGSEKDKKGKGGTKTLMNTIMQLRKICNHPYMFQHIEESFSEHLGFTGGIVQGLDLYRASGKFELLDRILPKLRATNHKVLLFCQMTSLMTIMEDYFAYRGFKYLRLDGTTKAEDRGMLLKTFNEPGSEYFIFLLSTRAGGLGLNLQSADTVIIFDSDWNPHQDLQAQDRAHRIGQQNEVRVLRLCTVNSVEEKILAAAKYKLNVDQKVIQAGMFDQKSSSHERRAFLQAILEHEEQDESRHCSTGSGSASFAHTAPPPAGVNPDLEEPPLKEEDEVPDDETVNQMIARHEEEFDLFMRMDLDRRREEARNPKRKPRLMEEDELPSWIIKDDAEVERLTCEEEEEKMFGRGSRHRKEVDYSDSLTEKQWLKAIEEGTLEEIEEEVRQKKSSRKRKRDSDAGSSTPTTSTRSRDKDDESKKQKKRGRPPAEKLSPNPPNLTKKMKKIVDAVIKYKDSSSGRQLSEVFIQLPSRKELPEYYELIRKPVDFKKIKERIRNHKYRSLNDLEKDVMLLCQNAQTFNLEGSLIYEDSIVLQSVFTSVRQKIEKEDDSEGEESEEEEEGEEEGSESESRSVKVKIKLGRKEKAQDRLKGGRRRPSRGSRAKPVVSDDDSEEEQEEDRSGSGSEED

SMILES: C[C@@H]1CN(CC2CCN(c3ccc4c(c3)C(=O)N(C3CCC(=O)NC3=O)C4)CC2)C[C@H](C)N1C(=O)N1CCN2c3cc(-c4cccc(F)c4O)nnc3NC[C@H]2C1 (stereo partly drawn) [Example 1, 3-(6-(4-(((3R,5S)-4-((S)-2-(3-fluoro-2-hydroxyphenyl)-6,6a,7,8,9,10-hexahydro-5H-pyrazino[1′,2′:4,5]pyrazino[2,3-c]pyridazine-8-carbonyl)-3,5-dimethylpiperazin-1-yl)methyl)piperidin-1-yl)-1-oxoisoindolin-2-yl)piperidine-2,6-dione]
- DC50 (SMARCA2): < 100 nM
- Dmax (SMARCA2): > 75%
- DC50 (SMARCA4): < 100 nM
- Dmax (SMARCA4): < 50%

SMILES: C[C@@H]1CN(CC2CN(c3ccc4c(c3)C(=O)N(C3CCC(=O)NC3=O)C4)C2)C[C@H](C)N1C(=O)N1CCN2c3cc(-c4cccc(F)c4O)nnc3NC[C@H]2C1 (stereo partly drawn) [Example 2, 3-(6-(3-(((3R,5S)-4-((S)-2-(3-fluoro-2-hydroxyphenyl)-6,6a,7,8,9,10-hexahydro-5H-pyrazino[1′,2′:4,5]pyrazino[2,3-c]pyridazine-8-carbonyl)-3,5-dimethylpiperazin-1-yl)methyl)azetidin-1-yl)-1-oxoisoindolin-2-yl)piperidine-2,6-dione]
- DC50 (SMARCA2): < 100 nM
- Dmax (SMARCA2): > 75%
- DC50 (SMARCA4): < 100 nM
- Dmax (SMARCA4): < 50%

SMILES: C[C@@H]1CN(C[C@H]2CN(c3ccc4c(c3)CN(C3CCC(=O)NC3=O)C4=O)CCO2)C[C@H](C)N1C(=O)N1CCN2c3cc(-c4cccc(F)c4O)nnc3NC[C@H]2C1 (stereo partly drawn) [Example 3, 3-(5-((S)-2-(((3R,5S)-4-((S)-2-(3-fluoro-2-hydroxyphenyl)-6,6a,7,8,9,10-hexahydro-5H-pyrazino[1′,2′:4,5]pyrazino[2,3-c]pyridazine-8-carbonyl)-3,5-dimethylpiperazin-1-yl)methyl)morpholino)-1-oxoisoindolin-2-yl)piperidine-2,6-dione]
- DC50 (SMARCA2): < 100 nM
- Dmax (SMARCA2): > 75%
- DC50 (SMARCA4): < 100 nM
- Dmax (SMARCA4): < 50%

SMILES: C[C@H]1CN2c3cc(-c4cccc(F)c4O)nnc3NC[C@H]2CN1C(=O)N1CCN(CC2CCN(c3ccc4c(c3)C(=O)N(C3CCC(=O)NC3=O)C4)CC2)CC1(C)C (stereo partly drawn) [Example 4, 3-(6-(4-((4-((6aS,9S)-2-(3-fluoro-2-hydroxyphenyl)-9-methyl-6,6a,7,8,9,10-hexahydro-5H-pyrazino[1′,2′:4,5]pyrazino[2,3-c]pyridazine-8-carbonyl)-3,3-dimethylpiperazin-1-yl)methyl)piperidin-1-yl)-1-oxoisoindolin-2-yl)piperidine-2,6-dione]
- DC50 (SMARCA2): < 100 nM
- Dmax (SMARCA2): > 75%
- DC50 (SMARCA4): < 100 nM
- Dmax (SMARCA4): < 50%

SMILES: CC1(C)CN(CC2CCN(c3ccc4c(c3)C(=O)N(C3CCC(=O)NC3=O)C4)CC2)CCN1C(=O)N1CCN2c3cc(-c4cccc(F)c4O)nnc3NC[C@H]2C1 (stereo partly drawn) [Example 5, 3-(6-(4-((4-((S)-2-(3-fluoro-2-hydroxyphenyl)-6,6a,7,8,9,10-hexahydro-5H-pyrazino[1′,2′:4,5]pyrazino[2,3-c]pyridazine-8-carbonyl)-3,3-dimethylpiperazin-1-yl)methyl)piperidin-1-yl)-1-oxoisoindolin-2-yl)piperidine-2,6-dione]
- DC50 (SMARCA2): < 100 nM
- Dmax (SMARCA2): > 75%
- DC50 (SMARCA4): < 100 nM
- Dmax (SMARCA4): < 50%

SMILES: C[C@@H]1CN(CC2CCN(c3ccc4c(c3)C(=O)N(C3CCC(=O)NC3=O)C4)CC2)C[C@H](C)N1C(=O)N1CCN2c3cc(-c4cc(F)cc(F)c4O)nnc3NC[C@H]2C1 (stereo partly drawn) [Example 15, 3-(6-(4-(((3R,5S)-4-((S)-2-(3,5-difluoro-2-hydroxyphenyl)-6,6a,7,8,9,10-hexahydro-5H-pyrazino[1′,2′:4,5]pyrazino[2,3-c]pyridazine-8-carbonyl)-3,5-dimethylpiperazin-1-yl)methyl)piperidin-1-yl)-1-oxoisoindolin-2-yl)piperidine-2,6-dione]
- DC50 (SMARCA2): < 100 nM
- Dmax (SMARCA2): > 75%
- DC50 (SMARCA4): < 100 nM
- Dmax (SMARCA4): 50 to 75%

SMILES: C[C@@H]1CN(CC2CCN(c3ccc4c(c3)C(=O)N([C@@H]3CCC(=O)NC3=O)C4)CC2)C[C@H](C)N1C(=O)N1CCN2c3cc(-c4cc(F)cc(F)c4O)nnc3NC[C@H]2C1 [Example 16, (R)-3-(6-(4-(((3S,5R)-4-((S)-2-(3,5-difluoro-2-hydroxyphenyl)-6,6a,7,8,9,10-hexahydro-5H-pyrazino[1′,2′:4,5]pyrazino[2,3-c]pyridazine-8-carbonyl)-3,5-dimethylpiperazin-1-yl)methyl)piperidin-1-yl)-1-oxoisoindolin-2-yl)piperidine-2,6-dione]
- DC50 (SMARCA2): < 100 nM
- Dmax (SMARCA2): > 75%
- DC50 (SMARCA4): < 100 nM
- Dmax (SMARCA4): < 50%

SMILES: C[C@@H]1CN(CC2CCN(c3ccc4c(c3)C(=O)N([C@H]3CCC(=O)NC3=O)C4)CC2)C[C@H](C)N1C(=O)N1CCN2c3cc(-c4cc(F)cc(F)c4O)nnc3NC[C@H]2C1 [Example 17, (S)-3-(6-(4-(((3S,5R)-4-((S)-2-(3,5-difluoro-2-hydroxyphenyl)-6,6a,7,8,9,10-hexahydro-5H-pyrazino[1′,2′:4,5]pyrazino[2,3-c]pyridazine-8-carbonyl)-3,5-dimethylpiperazin-1-yl)methyl)piperidin-1-yl)-1-oxoisoindolin-2-yl)piperidine-2,6-dione]
- DC50 (SMARCA2): < 100 nM
- Dmax (SMARCA2): > 75%
- DC50 (SMARCA4): < 100 nM
- Dmax (SMARCA4): 50 to 75%

SMILES: CC1(C)CN(CC2CCN(c3ccc4c(c3)C(=O)N([C@H]3CCC(=O)NC3=O)C4)CC2)CCN1C(=O)N1CCN2c3cc(-c4cc(F)cc(F)c4O)nnc3NC[C@H]2C1 [Example 19, (S)-3-(6-(4-((4-((S)-2-(3,5-difluoro-2-hydroxyphenyl)-6,6a,7,8,9,10-hexahydro-5H-pyrazino[1′,2′:4,5]pyrazino[2,3-c]pyridazine-8-carbonyl)-3,3-dimethylpiperazin-1-yl)methyl)piperidin-1-yl)-1-oxoisoindolin-2-yl)piperidine-2,6-dione]
- DC50 (SMARCA2): < 100 nM
- Dmax (SMARCA2): > 75%
- DC50 (SMARCA4): < 100 nM
- Dmax (SMARCA4; given as a number): 51%

SMILES: C[C@@H]1CN(CC2CN(c3ccc4c(c3)C(=O)N(C3CCC(=O)NC3=O)C4)C2)C[C@H](C)N1C(=O)N1CCN2c3cc(-c4cc(F)cc(F)c4O)nnc3NC[C@H]2C1 (stereo partly drawn) [Example 20, 3-(6-(3-(((3R,5S)-4-((S)-2-(3,5-difluoro-2-hydroxyphenyl)-6,6a,7,8,9,10-hexahydro-5H-pyrazino[1′,2′:4,5]pyrazino[2,3-c]pyridazine-8-carbonyl)-3,5-dimethylpiperazin-1-yl)methyl)azetidin-1-yl)-1-oxoisoindolin-2-yl)piperidine-2,6-dione]
- DC50 (SMARCA2): < 100 nM
- Dmax (SMARCA2): > 75%
- DC50 (SMARCA4): < 100 nM
- Dmax (SMARCA4): < 50%

SMILES: C[C@@H]1CN(C[C@H]2CN(c3ccc4c(c3)CN(C3CCC(=O)NC3=O)C4=O)CCO2)C[C@H](C)N1C(=O)N1CCN2c3cc(-c4cc(F)cc(F)c4O)nnc3NC[C@H]2C1 (stereo partly drawn) [Example 21, 3-(5-((S)-2-(((3R,5S)-4-((S)-2-(3,5-difluoro-2-hydroxyphenyl)-6,6a,7,8,9,10-hexahydro-5H-pyrazino[1′,2′:4,5]pyrazino[2,3-c]pyridazine-8-carbonyl)-3,5-dimethylpiperazin-1-yl)methyl)morpholino)-1-oxoisoindolin-2-yl)piperidine-2,6-dione]
- DC50 (SMARCA2): < 100 nM
- Dmax (SMARCA2): > 75%
- DC50 (SMARCA4): < 100 nM
- Dmax (SMARCA4): < 50%

SMILES: CC1(C)CN(CC2CCN(c3ccc4c(c3)C(=O)N(C3CCC(=O)NC3=O)C4)CC2)CCN1C(=O)N1CCN2c3cc(-c4cc(F)cc(F)c4O)nnc3NC[C@H]2C1 (stereo partly drawn) [Example 22, 3-(6-(4-((4-((S)-2-(3,5-difluoro-2-hydroxyphenyl)-6,6a,7,8,9,10-hexahydro-5H-pyrazino[1′,2′:4,5]pyrazino[2,3-c]pyridazine-8-carbonyl)-3,3-dimethylpiperazin-1-yl)methyl)piperidin-1-yl)-1-oxoisoindolin-2-yl)piperidine-2,6-dione]
- DC50 (SMARCA2): < 100 nM
- Dmax (SMARCA2): > 75%
- DC50 (SMARCA4): < 100 nM
- Dmax (SMARCA4): 50 to 75%

SMILES: CC1(C)CN(CC2CN(c3ccc4c(c3)C(=O)N(C3CCC(=O)NC3=O)C4)C2)CCN1C(=O)N1CCN2c3cc(-c4cc(F)cc(F)c4O)nnc3NC[C@H]2C1 (stereo partly drawn) [Example 23, 3-(6-(3-((4-((S)-2-(3,5-difluoro-2-hydroxyphenyl)-6,6a,7,8,9,10-hexahydro-5H-pyrazino[1′,2′:4,5]pyrazino[2,3-c]pyridazine-8-carbonyl)-3,3-dimethylpiperazin-1-yl)methyl)azetidin-1-yl)-1-oxoisoindolin-2-yl)piperidine-2,6-dione]
- DC50 (SMARCA2): < 100 nM
- Dmax (SMARCA2): > 75%
- DC50 (SMARCA4): < 100 nM
- Dmax (SMARCA4): < 50%

SMILES: C[C@@H]1CN(CC2CN(c3ccc4c(c3)C(=O)N(C3CCC(=O)NC3=O)C4)C2)C[C@H](C)N1C(=O)N1C[C@@H]2CNc3nnc(-c4cc(F)cc(F)c4O)cc3N2C[C@@H]1C (stereo partly drawn) [Example 24, 3-(6-(3-(((3S,5R)-4-((6aS,9S)-2-(3,5-difluoro-2-hydroxyphenyl)-9-methyl-6,6a,7,8,9,10-hexahydro-5H-pyrazino[1′,2′:4,5]pyrazino[2,3-c]pyridazine-8-carbonyl)-3,5-dimethylpiperazin-1-yl)methyl)azetidin-1-yl)-1-oxoisoindolin-2-yl)piperidine-2,6-dione]
- DC50 (SMARCA2): < 100 nM
- Dmax (SMARCA2): > 75%
- DC50 (SMARCA4): > 1000 nM
- Dmax (SMARCA4): < 50%

SMILES: C[C@H]1CN2c3cc(-c4cc(F)cc(F)c4O)nnc3NC[C@H]2CN1C(=O)N1CCN(CC2CCN(c3ccc4c(c3)C(=O)N(C3CCC(=O)NC3=O)C4)CC2)CC1(C)C (stereo partly drawn) [Example 25, 3-(6-(4-((4-((6aS,9S)-2-(3,5-difluoro-2-hydroxyphenyl)-9-methyl-6,6a,7,8,9,10-hexahydro-5H-pyrazino[1′,2′:4,5]pyrazino[2,3-c]pyridazine-8-carbonyl)-3,3-dimethylpiperazin-1-yl)methyl)piperidin-1-yl)-1-oxoisoindolin-2-yl)piperidine-2,6-dione]
- DC50 (SMARCA2): < 100 nM
- Dmax (SMARCA2): > 75%
- DC50 (SMARCA4): < 100 nM
- Dmax (SMARCA4): < 50%

Source: patent publication US20230365576A1, “BRM Targeting Compounds And Associated Methods Of Use” (Prelude Therapeutics Incorporated, priority 2022, published 2023)
